Measured values reported in patent publication US20060142572A1, “Inhibitors of ERK protein kinase and uses thereof” (priority 2004, published 2006).

Target: activated ERK2 (Homo sapiens, UniProt P28482)
Assay: ERK2 inhibition assay (spectrophotometric coupled-enzyme assay)
Type: biochemical
Conditions: activated ERK2 10 nM, 65 μM ATP, 200 μM erktide peptide, 30° C., pH 7.5
Procedure: Compounds were assayed for the inhibition of ERK2 by a spectrophotometric coupled-enzyme assay (Fox et al., Protein Sci. 7:2249, 1998). In this assay, a fixed concentration of activated ERK2 (10 nM) was incubated with various concentrations of a compound of the present invention in DMSO (2.5%) for 10 min. at 30° C. in 0.1 M HEPES buffer (pH 7.5), containing 10 mM MgCl2, 2.5 mM phosphoenolpyruvate, 200 μM NADH, 150 μg/ml pyruvate kinase, 50 μg/ml lactate dehydrogenase, and 200 μM erktide peptide. The reaction was initiated by the addition of 65 μM ATP. The rate of decrease of absorbance at 340 nm was monitored.

Sequence of activated ERK2 (P28482 whole entry): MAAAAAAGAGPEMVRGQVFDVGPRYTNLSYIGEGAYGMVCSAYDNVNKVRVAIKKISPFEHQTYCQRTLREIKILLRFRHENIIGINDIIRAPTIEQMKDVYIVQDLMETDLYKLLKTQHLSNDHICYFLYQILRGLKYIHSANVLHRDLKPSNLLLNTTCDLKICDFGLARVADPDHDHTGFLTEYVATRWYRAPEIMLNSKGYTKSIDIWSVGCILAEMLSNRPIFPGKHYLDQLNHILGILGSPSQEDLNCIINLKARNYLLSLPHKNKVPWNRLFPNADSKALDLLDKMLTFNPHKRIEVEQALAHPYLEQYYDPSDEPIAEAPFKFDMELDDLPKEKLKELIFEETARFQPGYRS

Row | Ki [nM] | SMILES
1 | > 700 | CC(C)Nc1ncc(Cl)c(NCC(=O)N[C@H](CO)c2cccc(Cl)c2)n1 [Compound I-1]
2 | ≤ 700 | C[C@@H](CO)Nc1ncc(Cl)c(NCC(=O)N[C@H](CO)c2cccc(Cl)c2)n1 [Compound I-2, 2-[5-chloro-2-(2-hydroxy-1-methylethylamino)-pyrimidin-4-ylamino]-N-[1-(3-chlorophenyl)-2-hydroxyethyl]acetamide]
3 | > 700 | CC(C)Nc1ncc(Cl)c(NCCC(=O)N[C@H](CO)c2cccc(Cl)c2)n1 [Compound I-3]
4 | > 700 | C[C@@H](CO)Nc1ncc(Cl)c(NCCC(=O)N[C@H](CO)c2cccc(Cl)c2)n1 [Compound I-4]
5 | > 700 | C[C@@H](CO)Nc1ncc(Cl)c(NC2(C(=O)N[C@H](CO)c3cccc(Cl)c3)CC2)n1 [Compound I-5, 1-(5-chloro-2-(2-hydroxy-1-methylethylamino)-pyrimidin-4-ylamino)-cyclopropanecarboxylic acid [1-(3-chlorophenyl)-2-hydroxyethyl]-amide]
6 | > 700 | CC[C@@H](CO)Nc1ncc(Cl)c(NC2(C(=O)N[C@H](CO)c3cccc(Cl)c3)CC2)n1 [Compound I-6]
7 | > 700 | C[C@@H](CO)Nc1ncc(Cl)c(N(C)CC(=O)N[C@H](CO)c2cccc(Cl)c2)n1 [Compound I-7, 2-{[5-chloro-2-(2-hydroxy-1-methylethylamino)pyrimidin-4-yl]-methylamino}-N-[1-(3-chlorophenyl)-2-hydroxyethyl]acetamide]
8 | > 700 | C[C@@H](CO)Nc1nccc(N(C)CC(=O)N[C@H](CO)c2cccc(Cl)c2)n1 [Compound I-8]
